Patent US7320984B2, “Remedies or preventives for urinary frequency or urinary incontinence and morphinan derivatives having nitrogen-containing heterocyclic group” (Toray Industries, Inc., priority 2002, dated 2008)

tested on: rhythmic bladder contractions in rats; experiment: Inhibitory effect against rhythmic bladder contractions in rats; type: in vivo; details: anesthetized female SD rats, intravenous, dose 0.03 mg/kg body weight
Description: Inhibitory Effect Against Rhythmic Bladder Contractions in Rats
Female SD rats were anesthetized with an intraperitoneal administration of urethane (1.0 g/kg). A polyethylene tube was inserted from the urethra to the bladder and the tube was fixed by ligation. Then physiological saline was appropriately infused (infusion rate: about 0.2 ml/min., maximum: about 1.5 ml/animal) through the tube to cause rhythmic bladder contractions. The rhythmic bladder contractions were monitored by measuring the intravesical pressure through a polyethylene tube inserted into the bladder. After confirming that stable rhythmic bladder contractions occurred at least 10 times, a vehicle containing a prescribed dose of a test compound was intravenously administration at a dose of 1 ml/kg. In cases where the intravesical pressure, within 10 minutes after the administration of the test compound, decreased to 50% or less of the intravesical pressure immediately […] the administration, the test compound was judged as having inhibitory effect against urinary bladder contractions, and the time period until the intravesical pressure returned to more than 50% was defined as inhibitory time of rhythmic bladder contractions. As the vehicle for administration, physiological saline was used for test compounds 4, 7, 8, 9, 10, 13, 29, 30, 31, 33, 34, 75, 76, 79, 80, 81, 82, 84, 89, 90, 91, 93, 94, 95, 110 and 111, aqueous 10% dimethylsulfoxide (DMSO) solution was used for test compounds 11, 12, 14, 15, 16, 17, 18, 20, 21, 23, 28, 46, 47, 50, 55, 56, 57, 58, 59, 60, 61, 62, 63, 64, 65, 66, 68, 69, 70, 71, 72, 73, 74, 77, 78, 83, 85, 86, 87, 88, 92, 96, 97, 98, 99, 100, […], 103, 104, 105, 106, 107, 108 and […], aqueous 20% dimethylsulfoxide (DMSO) solution was used for test compounds 1, 2, 67 and 101, and aqueous 5% xylitol solution was used for test compounds 5 and 35. The aqueous 10% DMSO solution, aqueous 20% DMSO solution and the aqueous 5% xylitol solution per se, which may influence on the inhibitory time of rhythmic bladder contractions, were also tested at a dose of 1 ml/kg. With any of the compounds, prolongation of the inhibitory time of rhythmic bladder contractions was observed when compared with that obtained in the group to which the vehicle alone was administered.

Compound	Mean Inhibitory Time of Rhythmic Bladder Contractions
O=C1c2cccc(F)c2CN1[C@@H]1CC[C@@]2(O)[C@H]3Cc4ccc(O)c5c4[C@@]2(CCN3CC2CC2)[C@H]1O5 [Compound 81, 2-(17-cyclopropylmethyl-4,5α-epoxy-3,14-dihydroxy-morphinan-6β-yl)-4-fluoro-2,3-dihydro-isoindol-1-one]	16.1 min
O=C1c2cc(F)ccc2CN1[C@@H]1CC[C@@]2(O)[C@H]3Cc4ccc(O)c5c4[C@@]2(CCN3CC2CC2)[C@H]1O5 [Compound 82, 2-(17-cyclopropylmethyl-4,5α-epoxy-3,14-dihydroxy-morphinan-6β-yl)-6-fluoro-2,3-dihydro-isoindol-1-one]	19.9 min
C=CCN1CC[C@]23c4c5ccc(O)c4O[C@H]2[C@H](N2Cc4cccc(F)c4C2=O)CC[C@@]3(O)[C@H]1C5 [Compound 88, 2-(17-allyl-4,5α-epoxy-3,14-dihydroxy-morphinan-6β-yl)-7-fluoro-2,3-dihydro-isoindol-1-one]	10.7 min
CC(=O)O[C@@]12CC[C@@H](N3C(=O)c4ccccc4C3=O)[C@@H]3Oc4c(O)ccc5c4[C@@]31CCN(CC1CC1)[C@@H]2C5 [Compound 91, N-(14-acetoxy-17-cyclopropylmethyl-4,5α-epoxy-3-hydroxymorphinan-6β-yl)-phthalimide]	14.7 min

same assay, conditions: anesthetized female SD rats, intravenous, dose 0.1 mg/kg body weight

Compound	Mean Inhibitory Time of Rhythmic Bladder Contractions
O=C1[C@H]2CC=CC[C@H]2C(=O)N1[C@@H]1CC[C@@]2(O)[C@H]3Cc4ccc(O)c5c4[C@@]2(CCN3CC2CC2)[C@H]1O5 [Compound 78, N-(17-cyclopropylmethyl-4,5α-epoxy-3,14-dihydroxy-morphinan-6β-yl)-cis-1,2,3,6-tetrahydrophthalimide]	13.4 min
O=C1[C@H]2C[C@H]2C(=O)N1[C@@H]1CC[C@@]2(O)[C@H]3Cc4ccc(O)c5c4[C@@]2(CCN3CC2CC2)[C@H]1O5 [Compound 79, N-(17-cyclopropylmethyl-4,5α-epoxy-3,14-dihydroxy-morphinan-6β-yl)-1,2-cyclopropanedicarboimide]	2.1 min
O=C1c2cccnc2C(=O)N1[C@@H]1CC[C@@]2(O)[C@H]3Cc4ccc(O)c5c4[C@@]2(CCN3CC2CC2)[C@H]1O5 [Compound 80, N-(17-cyclopropylmethyl-4,5α-epoxy-3,14-dihydroxy-morphinan-6β-yl)-2,3-pyridinedicarboimide]	1.1 min
O=C1C2=C(CCCC2)CN1[C@@H]1CC[C@@]2(O)[C@H]3Cc4ccc(O)c5c4[C@@]2(CCN3CC2CC2)[C@H]1O5 [Compound 83, 2-(17-cyclopropylmethyl-4,5α-epoxy-3,14-dihydroxy-morphinan-6β-yl)-2,3,4,5,6,7-hexahydro-isoindol-1-one]	10.6 min
C=CCN1CC[C@]23c4c5ccc(O)c4O[C@H]2[C@H](N2CC4=C(CCCC4)C2=O)CC[C@@]3(O)[C@H]1C5 [Compound 84, 2-(17-allyl-4,5α-epoxy-3,14-dihydroxy-morphinan-6-yl)-2,3,4,5,6,7-hexahydro-isoindol-1-one]	9.3 min
C=CCN1CC[C@]23c4c5ccc(O)c4O[C@H]2[C@@H](N2CC4=C(CCCC4)C2=O)CC[C@@]3(O)[C@H]1C5 [Compound 85, 2-(17-allyl-4,5α-epoxy-3,14-dihydroxy-morphinan-6α-yl)-2,3,4,5,6,7-hexahydro-isoindol-1-one]	6.9 min
C=CCN1CC[C@]23c4c5ccc(O)c4O[C@H]2[C@H](N2Cc4ccccc4C2=O)CC[C@@]3(O)[C@H]1C5 [Compound 86, 2-(17-allyl-4,5α-epoxy-3,14-dihydroxy-morphinan-6β-yl)-2,3-dihydro-isoindol-1-one]	12.1 min
C=CCN1CC[C@]23c4c5ccc(O)c4O[C@H]2[C@@H](N2Cc4ccccc4C2=O)CC[C@@]3(O)[C@H]1C5 [Compound 87, 2-(17-allyl-4,5α-epoxy-3,14-dihydroxy-morphinan-6α-yl)-2,3-dihydro-isoindol-1-one]	6.4 min
C=CCN1CC[C@]23c4c5ccc(O)c4O[C@H]2[C@H](N2Cc4c(F)cccc4C2=O)CC[C@@]3(O)[C@H]1C5 [Compound 89, 2-(17-allyl-4,5α-epoxy-3,14-dihydroxy-morphinan-6β-yl)-4-fluoro-2,3-dihydro-isoindol-1-one]	12.5 min
C=CCN1CC[C@]23c4c5ccc(O)c4O[C@H]2[C@H](N2Cc4ccc(F)cc4C2=O)CC[C@@]3(O)[C@H]1C5 [Compound 90, 2-(17-allyl-4,5α-epoxy-3,14-dihydroxy-morphinan-6β-yl)-6-fluoro-2,3-dihydro-isoindol-1-one]	17.6 min
C=CCN1CC[C@]23c4c5ccc(O)c4O[C@H]2[C@H](N2C(=O)c4ccccc4C2=O)CC[C@@]3(OC(C)=O)[C@H]1C5 [Compound 92, N-(14-acetoxy-17-allyl-4,5α-epoxy-3-hydroxymorphinan-6β-yl)-phthalimide]	16.0 min
CC(=O)O[C@@]12CC[C@@H](N3CC4=C(CCCC4)C3=O)[C@@H]3Oc4c(O)ccc5c4[C@@]31CCN(CC1CC1)[C@@H]2C5 [Compound 93, N-(14-acetoxy-17-cyclopropylmethyl-4,5α-epoxy-3-hydroxymorphinan-6β-yl)-2,3,4,5,6,7-hexahydro-isoindol-1-one]	16.0 min
CCCN1CC[C@]23c4c5ccc(O)c4O[C@H]2[C@H](N2C(=O)c4ccccc4C2=O)CC[C@@]3(O)[C@H]1C5 [Compound 94, N-(4,5α-epoxy-3,14-dihydroxy-17-propyl-morphinan-6β-yl)-phthalimide]	11.9 min
CN1CC[C@]23c4c5ccc(O)c4O[C@H]2[C@H](N2C(=O)c4ccccc4C2=O)CC[C@H]3[C@H]1C5 [Compound 95, N-(4,5α-epoxy-3-hydroxy-17-methyl-morphinan-6β-yl)-phthalimide]	15.0 min
O=C1c2cccc(O)c2C(=O)N1[C@@H]1CC[C@@]2(O)[C@H]3Cc4ccc(O)c5c4[C@@]2(CCN3CC2CC2)[C@H]1O5 [Compound 96, N-(17-cyclopropylmethyl-4,5α-epoxy-3,14-dihydroxy-morphinan-6β-yl)-3-hydroxy-phthalimide]	12.9 min
Nc1cccc2c1C(=O)N([C@@H]1CC[C@@]3(O)[C@H]4Cc5ccc(O)c6c5[C@@]3(CCN4CC3CC3)[C@H]1O6)C2=O [Compound 97, N-(17-cyclopropylmethyl-4,5α-epoxy-3,14-dihydroxy-morphinan-6β-yl)-3-amino-phthalimide]	11.2 min
Nc1ccc2c(c1)C(=O)N([C@@H]1CC[C@@]3(O)[C@H]4Cc5ccc(O)c6c5[C@@]3(CCN4CC3CC3)[C@H]1O6)C2=O [Compound 98, N-(17-cyclopropylmethyl-4,5α-epoxy-3,14-dihydroxy-morphinan-6β-yl)-4-amino-phthalimide]	7.2 min
C=CCN1CC[C@]23c4c5ccc(O)c4O[C@H]2[C@H](N2C(=O)c4ccc(N)cc4C2=O)CC[C@@]3(O)[C@H]1C5 [Compound 99, N-(17-allyl-4,5α-epoxy-3,14-dihydroxy-morphinan-6β-yl)-4-amino-phthalimide]	16.9 min
C=CCN1CC[C@]23c4c5ccc(O)c4O[C@H]2[C@H](N2C(=O)c4cccc(N)c4C2=O)CC[C@@]3(O)[C@H]1C5 [Compound 100, N-(17-allyl-4,5α-epoxy-3,14-dihydroxy-morphinan-6β-yl)-3-amino-phthalimide]	14.0 min
COc1cccc2c1C(=O)N([C@@H]1CC[C@@]3(O)[C@H]4Cc5ccc(O)c6c5[C@@]3(CCN4CC3CC3)[C@H]1O6)C2=O [Compound 102, N-(17-cyclopropylmethyl-4,5α-epoxy-3,14-dihydroxy-morphinan-6β-yl)-3-methoxy-phthalimide]	15.6 min
O=c1c2ccccc2[nH]n1[C@@H]1CC[C@@]2(O)[C@H]3Cc4ccc(O)c5c4[C@@]2(CCN3CC2CC2)[C@H]1O5 [Compound 103, 2-(17-cyclopropylmethyl-4,5α-epoxy-3,14-dihydroxy-morphinan-6β-yl)-1,2-dihydro-indazol-3-one]	13.1 min

same assay, conditions: anesthetized female SD rats, intravenous, dose 0.3 mg/kg body weight

Compound	Mean Inhibitory Time of Rhythmic Bladder Contractions
CCCN1CC[C@]23c4c5ccc(O)c4O[C@H]2[C@H](N2C(=O)c4cccc(N)c4C2=O)CC[C@@]3(O)[C@H]1C5 [Compound 101, N-(4,5α-epoxy-3,14-dihydroxy-17-propyl-morphinan-6β-yl)-3-amino-phthalimide]	15.1 min
